According to US20090269770A1, “METHODS FOR EVALUATION PROGNOSIS AND FOLLOW-UP OF DRUG TREATMENT OF PSYCHIATRIC DISEASES OR DISORDERS” (priority 2008, published 2009):

Tested on: PMC from schizophrenic patients
Experiment: Real-time RT-PCR of GABAAβ2 and PKCβ2 mRNAs in PMC (8 patients)
Assay type: in vivo, human
Method: FIGS. 2A-2B show real-time RT-PCR analysis of GABAAβ2 (2A) and PKCβ2 (2B) mRNAs in PMCs from schizophrenic patients treated with an antipsychotic drug combined with the antidepressant agent fluvoxamine. Fluvoxamine (100 mg/day) was added in an open study format to the constant antipsychotic treatment of 8 patients suffering from chronic schizophrenia with persistent negative symptoms. Total RNA, isolated from PMCs of these patients at baseline (day 0, BL) as well as following 1, 3 and 6 weeks (1W, 3W and 6W, respectively) of the combined treatment, was reverse transcribed. cDNA was amplified in real-time PCR using suitable primers for GABAAβ2 and PKCβ2, as described in the Experimental section. The relative expression level of a given mRNA was assessed by normalizing to the reference gene PPIB. For each patient, the expression level of each one of the genes at baseline was arbitrarily set as 1, and the gene expression levels at 3 and 6 weeks were calculated relative to baseline. Lines connecting points indicate samples of the same patient. Dash line indicates average of the samples of different objects. Student's t-test *p<0.05; **p<0.01 for 1, 3 or 6 weeks of fluvoxamine add-on compared with baseline.
Two μg of total RNA were denatured and reverse transcribed using random hexanucleotides (0.5 μg/μl) as previously described (Chertkow et al., 2006). Real-time quantitative assessment was performed using LightCycler with FastStart DNA Master SYBR Green I ready-to use PCR mix kits according to the manufacture's protocol (Roche Diagnostics, Mannheim, Germany). Forty ng cDNA was amplified per sample. Each experimental set included one reaction with water as template to control for cross contamination. […] The results were analyzed in real-time on the provided program of the LightCycler and normalized against a reference gene in order to correct sample-to-sample variation. […] Expression stability of these genes was determined in our samples with ‘Normfinder’ Excel applet (Andersen et al., 2004); PPIB was chosen as the reference gene for normalization. […]

[1] = after 3-6 weeks of the combined treatment

SMILES: COCCCC/C(=N\OCCN)c1ccc(C(F)(F)F)cc1 [fluvoxamine]
- average GABAAβ2 expression increase compared with day 0 [1]: 40-50%
- average PKCβ2 expression decrease compared with day 0 [1]: ≥ 90%
- average PKCβ2 expression decrease compared with day 0 (after one week of the combined treatment): about 30%
